Series [1] concerns Human osteoarthritic chondrocytes. The series is described as follows: Immunostaining of human osteoarthritic chondrocytes cultured 24 days on hyaluronic acid hydrogel (SOX9, Col2a1, ACAN). The series is classed as cell-based. The source says: The chondrocytes were layered on top of a hyaluronic acid hydrogel ([…]®, Sanofi-Aventis, United States) to promote a three-dimensional culture environment. Following 24 days, the cells were fixed with paraformaldehyde and immunostained for SOX9, Col2a1, and ACAN.

Series [2] shares this test system. The series is described as follows: Real-time RT-PCR of Col2a1 mRNA in human osteoarthritic chondrocytes cultured 20 days. The series is classed as cell-based. Particulars: delta-delta CT against GAPDH, actin, 18S rRNA. As to the method:
The chondrocytes were layered on top of a hyaluronic acid hydrogel ([…]®, Sanofi-Aventis, United States) to promote a three-dimensional culture environment. Following 20 days, hyaluronidase was added to release the cells from the hydrogel, the cells were collected, and total RNA was isolated.
(In general: Real-time PCR tracks product formation cycle by cycle.)

Series [3] deals with human chondrocyte spheroids. Kind of series: Morphology of human chondrocyte spheroids in hyaluronic acid hydrogel. Format: cell-based.
In series [4] the test system is THP-1 macrophage-like cells. Kind of series: IL-1beta release (ELISA) from PMA-differentiated THP-1 macrophage-like cells. Format: cell-based, human. Particulars: 0.2 to 6 millimolar; activation with 100 ng/mL LPS 24 hours then 10 millimolar ATP 1 hour (FIG. 4). As to the method: (§1) The human monocyte cell line THP-1 was differentiated into macrophage-like cells with PMA for 72 hours. […] Cells were then activated with 100 nanograms per milliliter LPS for 24 hours followed by an additional hour with 10 millimolar adenosine triphosphate (ATP). IL-1beta release was quantified by enzyme-linked immunosorbent assay (ELISA).
(An ELISA detects its analyte on a solid surface through an enzyme-linked reagent.)

In another series the test system is THP-1 cells. Kind of series: Viability of PMA-differentiated THP-1 cells (optical density at 490 nanometers). The series is classed as cell-based, human. As to the method: as §1
Cell viability was also assessed by optical density at 490 nanometers (FIGS. 5A & 5B).

For series [5] the following is noted: cited from earlier work.
Where [6] appears, read: high-density monolayers, ethanol vehicle, 0.1, 0.5 and 1 millimolar, 24 days.

This is an account of results in patent US20240423957A1, “TOPICAL ANTI-INFLAMMATORY AND ANALGESIC COMPOSITIONS AND METHODS OF USE” (INSIGNIA PHARMACEUTICALS, LLC, priority 2023, published 2024).

Entries after “also recorded” stand apart in the source; their conditions may differ.

Take `CCCCCCCCCC(=O)O` [decanoic acid]: in series [1] (1 millimolar), the “ACAN immunostaining of chondrocyte spheroids” value is recorded as “strong ACAN immunostaining”. Moreover, in series [1] (1 millimolar, 24 days), the “SOX9 staining of spheroids” value is recorded as “stained strongly for SOX9” and the “spheroid development or condensation” value was “enhanced spheroid development or condensation”. In series [1] (high-density monolayers), the “concentration with peak Col2a1 staining” value is on record as 0.5 millimolar. For the same compound, in series [1] (setting [6]), the “nuclear staining for SOX9” value is recorded as “enhanced nuclear staining for SOX9 in a dose-dependent manner”, the “punctate staining for ACAN” value is recorded as “dose-dependent punctate staining for ACAN” and the “punctate staining for Col2a1” value is “dose-dependent punctate staining for Col2a1”. In addition, the “concentration with strongest ACAN staining” value in series [1] (low-density monolayers) is given as 1 millimolar. The “punctate immunostaining for Col2a1” value in series [1] (low-density monolayers, 1 millimolar) is on record as “strong punctate immunostaining for Col2a1”. For the same compound, in series [2] (0.5 millimolar), the “increase in Col2a1 mRNA” value was 1 fold. In series [2] (1 millimolar), the “increase in Col2a1 mRNA” value is on record as 7 fold. In series [3] (after 4 days of culture (FIGS. 2A & 2B)), the spheroid morphology result was “promoted interconnected networks of spheroids; also recorded: generated interconnected networks that suspended the spheroids”. Moreover, in series [3] (after 20 days of culture (FIGS. 3A & 3B)), the spheroid morphology entry is “large spheroid development or condensation”. In series [4], the IL-1beta release entry was “dose-dependent inhibition of IL-1beta release; also recorded: dose-dependent inhibition of IL-1beta concentrations”. Further, in the series on THP-1 cells (6 millimolar (FIGS. 5A & 5B)), the cell viability entry is on record as “unfavorable effect on viability; also recorded: significant decrease in viability”. In addition, the cell viability result in the series on THP-1 cells (concentrations below 6 millimolar (from 0.19 millimolar), relative to vehicle controls) is reported as “no lower concentration of decanoic acid reduced cell viability”. Also, the pKa result in series [5] is given as “about 4.9”.
